Measured values reported in patent EP4653012A1 (Jiangsu Hengrui Pharmaceuticals Co., Ltd., priority 2023, dated 2024).

Columns and labels:
[1] = Pharmacokinetic study in beagles, intravenous administration, plasma by LC/MS/MS; details: 0.5 mg/kg
Protocol: The pharmacokinetic behavior of the compound of the present disclosure in dogs was studied, and its pharmacokinetic profile was evaluated.
Six male beagles were divided into 2 groups of 3, purchased from Shanghai Medicilon Inc., and subjected to an administration test.
The collected blood samples were each placed in EDTA-K2 anticoagulant blood collection tubes, and the collected whole blood was placed on ice and centrifuged within 1 h to isolate the plasma (centrifugal force: 2200 g, centrifugal time: 10 min, 2-8 °C). Plasma samples were stored in a refrigerator at -80 °C prior to testing.
The content of the test compounds in beagle plasma after the injection was determined: 25 µL of beagle plasma at each time point after the administration was mixed with 50 µL (100 ng/mL) of internal standard solution camptothecin (China National Institutes for Food and Drug Control) and 200 µL of acetonitrile. The mixture was vortexed for 5 min and centrifuged for 10 min (3700 rpm), and 3-4 µL of the supernatant of the plasma sample was taken for LC/MS/MS assay (API4000 triple quadrupole tandem mass spectrometer (No. 2), Applied Biosystems, USA; Shimadzu, LC-30AD ultra high performance liquid chromatography system, Shimadzu, Japan).

MDA-MB-468 (HER2-) = test: In vitro cytotoxic activity screening (CTG assay); assay type: cell-based
Protocol: (§1) In this experiment, the ATP content was determined using CTG to reflect the survival condition of the tumor cells. […] The killing effect of the toxin molecule was then assayed according to this condition.
(§2) According to the purpose of the experiment, two disease models of breast cancer and NSCLC were selected, and three cell strains of SKBR3 tumor cells (HER2+, ATCC, Cat# HTB-30), MDA-MB-468 (HER2-, ATCC, Cat# HTB-132) and A549 (human non-small cell lung cancer cells, ATCC, Cat# CCL-185) were selected for screening.
(§3) The cells were counted, and 4.3 × 10^5, 7.2 × 10^5 and 11.5 × 10^5 cells were each added to a culture solution to give a final volume of 26 mL. 180 µL of cell suspension was added to each well in columns 2 to 11 of a 96-well plate (Corning, Cat# 3903) to give cell densities of 3K, 5K, and 8K per well. Wells in column 12 were each filled with 200 µL of culture solution and the remaining wells were each filled with PBS. The SKBR3 and MDA-MB-468 cells were subjected to the same operations described above. […] 2 mM stock solution (stock solution diluted 10-fold in DMSO) was prepared in column 1 of drug preparation plate 1, and then 10-fold gradient dilution in DMSO was performed through column 10, and the wells in column 11 were filled with DMSO. 95 µL of corresponding culture solution was added into each well from column 2 to column 11 of the drug preparation plate 2, and 5 µL of solution was pipetted from column 2 to column 11 of drug preparation plate 1 to drug preparation plate 2. The solution was mixed well, and 20 µL of solution was pipetted and added into the plated cells. The cells were then cultured for 3 days and 5 days. • 4) CTG assay (Cell Titer-GloTM, luminescent cell viability assay, Promega): the cell plates were taken out on day 3 and day 5 and equilibrated to room temperature. 90 µL of CTG was added into each well, and the mixture was reacted at room temperature for 10 min in the dark. The luminescence value was read using a microplate reader and IC50 was calculated.

[2] = tested on: SKBR3 tumor cells (HER2+); test: In vitro cytotoxic activity screening (CTG assay); assay type: cell-based
Protocol: as §1, §2, §3

[3] = tested on: A549 (human non-small cell lung cancer cells); test: In vitro cytotoxic activity screening (CTG assay); assay type: cell-based
Protocol: as §1, §2, §3

Compound | Plasma concentration C5min ([1]; beagles, intravenous) | IC50 (MDA-MB-468 (HER2-); Homo sapiens, MDA-MB-468) | Maximum inhibition rate (MDA-MB-468 (HER2-); MDA-MB-468, CTG) | IC50 ([2]; Homo sapiens, SK-BR-3) | Maximum inhibition rate ([2]; SKBR3, CTG) | Maximum inhibition rate ([3]; A549, CTG) | IC50 ([3]; Homo sapiens, A549) | concentration at 5 min ([1]; male, beagle, dog, in vivo, iv)
C=C1C[C@@H]2CC[C@@]34C[C@H]5O[C@H]6[C@@H](O3)[C@H]3O[C@H](CC[C@@H]3O[C@H]6[C@H]5O4)CC(=O)C[C@@H]3[C@@H](OC)[C@@H](C[C@@H](CN)OC)O[C@H]3C[C@H]3O[C@@H](CC[C@@H]1O2)C[C@@H](C)C3=C [Compound 1] | 82.1 ng/mL | 183 pM | 88.01% | 205 pM | 96.87% | 81.34% | 515 pM | 
C=C1C[C@@H]2CC[C@@]34C[C@H]5O[C@H]6[C@@H](O3)[C@H]3O[C@H](CC[C@@H]3O[C@H]6[C@H]5O4)CC(=O)C[C@@H]3[C@@H](OC)[C@@H](C[C@H](O)CN)O[C@H]3C[C@H]3O[C@@H](CC[C@@H]1O2)C[C@@H](C)C3=C [Eribulin, eribulin, reference compound] |  |  |  |  |  |  |  | 217 ng/mL
